# Test results taken from patent publication US20130178523A1, “ANTI-CANCER COMPOSITIONS AND METHODS” (THE PENN STATE RESEARCH FOUNDATION, priority 2007, published 2013).
# Experiments:
# UACC 903 cells [1] = experiment: BrdU ELISA cellular proliferation; format: cell-based, human; conditions: 24 hours
# Method: Proliferation rate is measured using a BrdU ELISA kit (Roche Applied Sciences, Indianapolis, Ind.).
# BrdUrd is used to label cells for 4-6 hours. At 15 μM concentration, ISC-4 and ISC-6 reduced UACC 903 cellular proliferative potential by ˜80-90% compared to controls. Results represent the average of 3 independent experiments; bars represent SEM. The average value is represented as the percentage of control DMSO treated cells.
# UACC 903 cells [2] = experiment: Apo-ONE caspase-3/7 apoptosis assay; format: cell-based, human; conditions: 24 hours
# Method: Apoptosis rates are measured using an Apo-ONE Homogenous caspase-3/7 Assay kit (Promega Corporation, Madison, Wis.).
# The isoselenocyanate compounds promote apoptosis in melanoma cells. […] The graphs in FIGS. 3A and 3B show fold increase in caspase-3/7 activity relative to DMSO vehicle treated cells on the x-axis. Results represent average of 3 independent experiments. Bars indicate SEM.
# [3] = Toxicity assessments in nude mice (blood parameters, histology); format: in vivo
# Source text: Animals are sacrificed by CO2 asphyxiation and blood collected from each animal in plasma separator tubes with lithium heparin (BD Microtainer, BD, Franklin Lakes, N.J.) following cardiac puncture and analyzed for AST (aspartate aminotransferase), ALT, (alanyl aminotransferase), alkaline phosphatase, glucose and creatinine to ascertain liver, heart, kidney and pancreas related toxicity. For morphological examination of blood cells, whole blood is collected in microtainer tubes containing K2EDTA (BD Microtainer, BD, Franklin Lakes, N.J.) and RBC, WBC, lymphocytes, monocytes, eosinophils, platelets, total hemoglobin and hematocrit percentage analyzed. Blood is also microscopically examined for segregates, polychromatin bodies, and smudge cells. A portion of liver, heart, kidney, spleen, intestine pancreas and adrenal from each animal is formalin fixed and paraffin-embedded to examine toxicity-related changes in cell or organ morphology by H&E staining.
# UACC 903 cells [4] = experiment: Topical application on melanoma tumor growth in vivo; design: species or system mice; conditions: topical daily
# Method: Chemopreventive or chemotherapeutic effect of ISC-4 on cutaneous tumor development is measured by subcutaneous injection of 1 million UACC 903 cells in 0.2 ml of DMEM −10% FBS above both the left and right rib cages of 4- to 6-week old female athymic nude mice using 24 g needles. […] The dimensions of the developing tumors are measured alternate days using calipers and the sizes estimated in cubic millimeters. A minimum of 5 mice per group is used for the topical treatment.
# Chemopreventive or chemotherapeutic effect of ISC-4 on cutaneous tumor development is measured by subcutaneous injection of 1 million UACC 903 cells in 0.2 ml of DMEM −10% FBS above both the left and right rib cages of 4- to 6-week old female athymic nude mice using 24 g needles. 24 hours later, animals were treated daily with ISC-4 (12.5-50 μM), PBITC (12.5-50 μM), or vehicle control (acetone) for 3-4 weeks. The dimensions of the developing tumors are measured alternate days using calipers and the sizes estimated in cubic millimeters. A minimum of 5 mice per group was used for the topical treatment.
# T-98-G = experiment: MTS assay, glioblastoma cells; conditions: Homo sapiens, T98G, 24 h
# HT-1080 = experiment: MTS assay, fibrosarcoma cells; conditions: Homo sapiens, HT-1080, 24 h
# Caco-2 = experiment: MTS assay, colon cancer cells; conditions: Homo sapiens, Caco-2, 24 h
# MDA-MB-231 = experiment: MTS assay, breast cancer cells; conditions: Homo sapiens, MDA-MB-231, 24 h
# WM115 melanoma cells = experiment: MTS cell viability assay, WM115; conditions: Homo sapiens, WM-115, 24 h
# PC-3 = experiment: MTS assay, prostate cancer cells; conditions: Homo sapiens, PC-3, 24 h
# 1205 Lu melanoma cells = experiment: MTS cell viability assay, 1205 Lu; conditions: Homo sapiens, 24 h
# [5] = test system: normal human fibroblasts (FF2441); experiment: IC50 in normal human fibroblasts
# UACC 903 melanoma cells [6] = experiment: MTS cell viability assay, UACC 903; conditions: Homo sapiens, UACC-903, 24 h
# [7] = test system: pAkt and downstream pPRAS40 in UACC 903 tumors; experiment: Western blot analysis of excised tumors; conditions: day 13, 0.76 μmoles i.p. alternate days, versus DMSO or PBITC
# [8] = test system: Akt signaling pathway in melanoma cell line WM115; experiment: Western blot, Akt signaling pathway in WM115; conditions: FIG. 10B
# [9] = test system: Akt signaling pathway in melanoma cell line 1205 Lu; experiment: Western blot, Akt signaling pathway in 1205 Lu; conditions: FIG. 10A
# UACC 903 cells [10] = experiment: Cell cycle analysis (propidium iodide, FACScan); conditions: 24 hours
# UACC 903 tumors = experiment: Proliferation/apoptosis rates in tumors (TUNEL, Ki-67)
# [11] = test system: GFP tagged UACC 903 human melanoma cells; experiment: Topical application on reconstructed human skin with melanoma cells; conditions: 12.5 and 25 μM topical; compared to DMSO treated or untreated skins
# UACC 903 melanoma cells [12] = experiment: Tumor development in nude mice, subcutaneous UACC 903, i.p. treatment; conditions: 0.76 μmoles (3 ppm selenium) i.p. thrice per week; day 24; doses 3× lower than isothiocyanates
# Akt signaling pathway = experiment: Western blot of Akt signaling pathway in cultured melanoma cells (FIG. 9); conditions: 24 hours
smiles,measurement,setting,value
"[Se]=C=NCCCCc1ccccc1 [ISC-4, Phenylbutyl Isoselenocyanate]",proliferative potential with increasing concentrations,"UACC 903 cells [1]; 5, 10, 15 μM",decreased proliferative potential
same,fold more effective than PBITC or PHITC at inhibiting cellular proliferation,UACC 903 cells [1]; 5-15 μM,~2 fold
same,"cellular apoptosis with increasing concentrations (caspase-3/7 activity, words)","UACC 903 cells [2]; 5, 10, 15 μM",increase cellular apoptosis
same,fold more effective than PBITC at inducing apoptosis,"UACC 903 cells [2]; caspase-3/7 activity, 5-15 μM",~2 fold
same,"blood SGOT, SGPT, alkaline phosphatase, glucose and creatinine","[3]; 0.76 μmoles i.p. 3 times per week for 3 weeks, compared to vehicle DMSO",did not alter parameters
same,histological examination of vital organ sections,"[3]; hematoxylin and eosin stained, including the liver",did not significantly change cell morphology or organ structure
same,"basal urea nitrogen (BUN), creatinine and glucose levels",[3]; treated versus control animals,not significantly different
same,systemic toxicity by body weight,UACC 903 cells [4]; 0.063-0.19 μmoles equivalent to 0.25-0.75 ppm,no systemic toxicity
same,tumor size,"UACC 903 cells [4]; 0.063-0.19 μmoles equivalent to 0.25-0.75 ppm, versus vehicle or PBITC",decreased tumor size
same,systemic toxicity by body weight,UACC 903 cells [4]; 12.5-50 μM,no systemic toxicity
same,reduction of melanoma tumor development,"UACC 903 cells [4]; 12.5-50 μM, compared to PBITC or vehicle control",~50%
same,IC50,T-98-G,27 ± 1 µM
same,IC50,HT-1080,11 ± 1 µM
same,IC50,Caco-2,12 ± 3 µM
same,IC50,MDA-MB-231,21 µM
same,IC50,WM115 melanoma cells,7 µM
same,IC50,PC-3,19 ± 1 µM
same,IC50,1205 Lu melanoma cells,11 µM
same,fold greater sensitivity of melanoma cells (UACC 903) than normal fibroblasts (FF2441),[5]; 24 hours,3 fold
same,IC50,"[5]; Homo sapiens, FF2441, 24 h, read-out: IC50 (drug concentration required to kill fibroblasts)",37.5 µM
same,IC50,UACC 903 melanoma cells [6],12 ± 3 µM
same,expression of downstream PRAS40 (phosphorylated) in tumor lysates,[7]; p<0.001,significantly decreased expression
same,expression of phosphorylated (active) Akt in tumor lysates,[7]; p<0.05,significantly decreased expression
same,apoptosis indicated by cleaved PARP protein levels,[8],causes significant apoptosis
same,apoptosis indicated by cleaved PARP protein levels,[9],causes significant apoptosis
same,G0/G1 cell population,UACC 903 cells [10]; 5 μM,59.4
same,G2/M cell population,UACC 903 cells [10]; 5 μM,16.3
same,S cell population,UACC 903 cells [10]; 5 μM,24.3
same,subG0/G1 cell population,UACC 903 cells [10]; 5 μM,2.9
same,G0/G1 cell population,UACC 903 cells [10]; 10 μM,41.6
same,G2/M cell population,UACC 903 cells [10]; 10 μM,29.4
same,S cell population,UACC 903 cells [10]; 10 μM,29.0
same,subG0/G1 cell population,UACC 903 cells [10]; 10 μM,12.3
same,G0/G1 cell population,UACC 903 cells [10]; 15 μM,35.5
same,G2/M cell population,UACC 903 cells [10]; 15 μM,28.0
same,S cell population,UACC 903 cells [10]; 15 μM,36.5
same,subG0/G1 cell population,UACC 903 cells [10]; 15 μM,22.8
same,"proliferating tumor cells (Ki-67, words)","UACC 903 tumors; compared to PBITC, size and time matched tumors",slightly fewer proliferating tumor cells
same,"TUNEL positive (apoptotic) cells in tumors, fold versus DMSO or PBITC","UACC 903 tumors; tumors harvested at day 11 and 13, 3 ppm selenium i.p.",~3 fold
same,decrease in tumor area occupied by melanoma cells,[11],~80%
same,melanoma tumor volume,UACC 903 melanoma cells [12],reduce tumor volume
same,concentration completely inhibiting the Akt3 pathway (Western blot),Akt signaling pathway,10 µM
same,level of apoptosis (cleaved PARP) versus PBITC,Akt signaling pathway,higher level of apoptosis
